The record followed here is article PMC3389297 (Bioorganic & medicinal chemistry, 2012).

“Also recorded” adds a separate entry of the source.

Common to all, as to format: biochemical
Experiment [1] deals with T1, Cdc25c (Homo sapiens, UniProt P30307).
T1 sequence (P30307 321-428 limits assumed): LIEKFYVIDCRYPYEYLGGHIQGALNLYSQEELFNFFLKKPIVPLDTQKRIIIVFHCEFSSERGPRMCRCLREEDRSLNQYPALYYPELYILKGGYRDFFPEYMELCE
The experiment can be described thus: OMFP phosphatase assay, Cdc25c.

The target of experiment [2] is T2, Cdc25b (Homo sapiens, UniProt P30305).
T2 sequence (P30305 431-538 limits assumed): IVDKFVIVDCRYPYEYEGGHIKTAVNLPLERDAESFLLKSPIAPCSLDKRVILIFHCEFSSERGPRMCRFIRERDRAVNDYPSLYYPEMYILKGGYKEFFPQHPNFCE
The experiment in a line: OMFP phosphatase assay, Cdc25b. Particulars: for Mode of inhibition of Cdc25b: Michaelis-Menten kinetics, varying inhibitor concentrations; for Reversibility of inhibition of Cdc25b: dilution method: pre-incubation at 4 times IC50, 10-fold dilution.

In experiment [3] the target is T3, Cdc25a (Homo sapiens, UniProt P30304).
T3 sequence (P30304 376-482 limits assumed): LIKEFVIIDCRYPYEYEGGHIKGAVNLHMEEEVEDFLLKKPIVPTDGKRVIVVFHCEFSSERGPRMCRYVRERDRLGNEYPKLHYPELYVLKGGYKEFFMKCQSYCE
The experiment in a line: OMFP phosphatase assay, Cdc25a. The note with it: for Mode of inhibition of Cdc25a: Michaelis-Menten kinetics, varying inhibitor concentrations; for Reversibility of inhibition of Cdc25a: dilution method: pre-incubation at 4 times IC50, 10-fold dilution.

The target of experiment [4] is PTP-β (Homo sapiens, UniProt P23467). The experiment can be described thus: Colorimetric PTP-β assay using p-NPP as substrate. Particulars: 5 µM compound; 1 mM p-NPP as substrate.
Sequence of PTP-β (P23467 1703-1963 limits assumed): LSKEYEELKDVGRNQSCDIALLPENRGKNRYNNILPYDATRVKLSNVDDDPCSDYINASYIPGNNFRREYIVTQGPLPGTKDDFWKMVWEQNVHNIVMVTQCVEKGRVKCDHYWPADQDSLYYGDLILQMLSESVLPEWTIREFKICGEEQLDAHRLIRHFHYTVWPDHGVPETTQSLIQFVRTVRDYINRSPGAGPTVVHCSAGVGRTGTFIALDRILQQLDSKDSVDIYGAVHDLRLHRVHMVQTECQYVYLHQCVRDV

`O=C(O)CCc1ccc[c]([Sb](=[O])([OH])[OH])c1` [Compound P6949, 3-(3-stibonophenyl)propanoic acid]: the “Effect on activity of Cdc25c” value in experiment [1] (at the concentrations tested) is reported as “not affected”. Moreover, in experiment [2] (OMFP), the “Mode of inhibition of Cdc25b” value is recorded as “partial mixed-type mode of inhibition” and the “Potency relative to 13778 for Cdc25b (fold lower)” value is ~ 10 fold. The “Reversibility of inhibition of Cdc25b” value in experiment [2] was “reversible”. In experiment [3] (OMFP), the “Mode of inhibition of Cdc25a” value is reported as “partial mixed-type mode of inhibition” and the “Potency relative to 13778 for Cdc25a (fold lower)” value was ~ 30 fold. Besides, in experiment [3], the “Reversibility of inhibition of Cdc25a” value was “reversible”. Besides, the “Inhibition of PTP-β” value in experiment [4] is “almost completely inhibiting phosphatase activity”.

Consider `[O]=[Sb]([OH])([OH])[c]1ccccc1` [Compound 13744], for which the “Inhibition of PTP-β” value in experiment [4] is on record as “does not show any inhibitory effect; also recorded: No inhibition”.

As for `O=C(O)/C=C/c1ccc[c]([Sb](=[O])([OH])[OH])c1` [Compound 13778, (E)-3-(3-stibonophenyl)acrylic acid], in experiment [1] (10 µM compound), the “Effect on activity of Cdc25c” value is listed as “not substantially affected”. Also, the “Mode of inhibition of Cdc25b” value in experiment [2] (OMFP) is “partial mixed-type mode of inhibition”. Further, the “Reversibility of inhibition of Cdc25b” value in experiment [2] is recorded as “reversible”. Besides, in experiment [3] (OMFP), the “Mode of inhibition of Cdc25a” value is listed as “partial mixed-type mode of inhibition”. Moreover, in experiment [3], the “Reversibility of inhibition of Cdc25a” value is given as “reversible”. Besides, the “Inhibition of PTP-β” value in experiment [4] is listed as “almost completely inhibiting phosphatase activity”.
